The record followed here is patent US20060275303A1, “Modulating angiogenesis using LL-37/HCAP-18” (priority 2003, published 2006).

For assay [1], the system named is HUVECs. Kind of assay: Inhibition of the LL-37/hCAP-18-induced proliferative response of endothelial cells. It counts as cell-based, human. Conditions: for effect of the inhibitor on LL-37/hCAP-18-induced endothelial proliferation: HUVECs preincubated with the inhibitor (pertussis toxin 10 ng/ml); for effect of the inhibitor on baseline cell proliferation: HUVECs, without LL-37/hCAP-18. The procedure: (§1) Endothelial cells from human umbilical veins (HUVEC) were isolated as described before^8. 10^4 cells were seeded on six well plastic dishes in serum free medium. Different concentrations of LL-37 were added to the culture medium. VEGF (5 ng/ml, 165 amino acid variant, Sigma Chemicals, Munich, Germany) was used as positive control. After 72 h the cells were detached from the support and counted. Experiments were repeated ten times using synthetic LL-37/hCAP-18 (37 C-terminal amino acids) and the hexapeptide WKYMVm, wherein “m” denotes the D-form of the amino acid methionine, from two different sources (IPF Pharmaceuticals, Hannover, Germany and Institute for Biochemistry, Humboldt-University of Berlin, Germany). As control peptide we used the peptide L-14 […] to have any interactions with FPRL1 from the same source (Humboldt-University). Human serum (10%, donor with ABO blood group O) was applied under the same conditions to analyze any impact on induction of proliferation by LL-37. For inhibition experiments we applied inhibitors of G-protein coupled receptors (pertussis toxin, 10 ng/ml), PI-3K (wortmannin), and PKC (GF 109203X). For Matrigel assays HUVECs were seeded on Matrigel support (Beckton Dickinson, Franklin Lakes, N.J.) and cultivated in serum free medium in the absence or presence of 0.5 μg/ml LL-37. After 18 h, the cultures were inspected for the formation of rings and cords. Experiments were repeated three times.
As a next step we analyzed which mechanisms might be involved in the angiogenic activity of LL-37/hCAP-18. We applied inhibitors of G-protein coupled receptors (pertussis toxin), PI-3K (wortmannin), and PKC (GF 109203X) and monitored cell proliferation as outcome parameter.

The subject of assay [2] is HUVECs. As to the kind of experiment: In vitro proliferation assay with HUVECs. It counts as cell-based, human. The procedure:
as §1
We measured the ability of LL-37/hCAP-18 to accelerate proliferation of HUVECs in a proliferation assay. […] HUVECs were seeded on six well plastic dishes and cultivated in serum free medium. Different concentrations of LL-37/hCAP-18 and control peptides were added to the culture medium. Figures on the left hand side indicate the numbers of cells per μl of volume after 72 h. VEGF was used as positive control. In vitro proliferation was not inhibited by human serum. A significance level of P<0.05 is labeled with **.b. […] HUVECs were seeded on Matrigel support and cultivated in serum free medium in the absence (c) or presence (d) of 0.5 μg/ml LL-37/hCAP-18. After 18 h, the cultures were inspected for the formation of rings and cords. Representative figures are shown.

Assay [3] concerns HUVECs. Kind of assay: In vitro Matrigel assay (formation of rings and cords). It is filed as cell-based, human. The settings on record: HUVECs on Matrigel, serum free medium, 0.5 μg/ml, 18 h. The protocol:
Endothelial cells from human umbilical veins (HUVEC) were isolated as described before^8. 10^4 cells were seeded on six well plastic dishes in serum free medium. Different concentrations of LL-37 were added to the culture medium. VEGF (5 ng/ml, 165 amino acid variant, Sigma Chemicals, Munich, Germany) was used as positive control. After 72 h the cells were detached from the support and counted. Experiments were repeated ten times using synthetic LL-37/hCAP-18 (37 C-terminal amino acids) and the hexapeptide WKYMVm, wherein “m” denotes the D-form of the amino acid methionine, from two different sources (IPF Pharmaceuticals, Hannover, Germany and Institute for Biochemistry, Humboldt-University of Berlin, Germany). As control peptide we used the peptide L-14 […] to have any interactions with FPRL1 from the same source (Humboldt-University). Human serum (10%, donor with ABO blood group O) was applied under the same conditions to analyze any impact on induction of proliferation by LL-37. For inhibition experiments we applied inhibitors of G-protein coupled receptors (pertussis toxin, 10 ng/ml), PI-3K (wortmannin), and PKC (GF 109203X). […]
We measured the ability of LL-37/hCAP-18 to accelerate proliferation of HUVECs in a proliferation assay. […]

Another assay relates to ischemic hindlimb. Kind of assay: Rabbit hind limb model of arteriogenesis and angiogenesis. It counts as in vivo. The settings on record: 200 μg intramuscular 7 days after femoral artery excision, vs PBS control, day 35. The protocol:
To analyze angiogenic effects of LL-37 in vivo we used a rabbit model of angiogenesis. German Giant Rabbits (6.5±0.4 kg, n=8) were subjected to ligation of the external iliac artery (proximally), the popliteal and saphenous arteries (distally) and all femoral artery branches, followed by excision of the entire femoral artery. Seven days after surgery, synthetic LL-37 (200 μg in 1 ml PBS) or PBS alone as control were injected into the muscles of the medial thigh and the calf (5 injections sites, n=4/group). Seven (baseline) and thirty-five days after surgery, angiography was performed by automated injection of contrast agent into the abdominal aorta (4 ml at 2 ml/sec; cine-angiography 25 frames/sec; Siemens, Munich, Germany). Collateral growth was defined as the increase in angiographic collateral score between baseline and 35 days after initial surgery (assessed by counting the contrast-opacified collateral vessels in the medial thigh using a grid overlay)^12. Blood flow was assessed by cine-frame-count of the passage time of contrast agent between the common iliac artery and the anterior tibial artery (proximal and distal landmarks), adapting the TIMI frame-count method to peripheral blood flow^13. Blood flow measurements correlate well with results obtained with doppler flow-wire in the internal iliac artery (Jomed, Haan, Germany). Tissue specimens were sampled from the right gastrocnemius and fibularis muscles for histology (alkaline phosphatase staining using an indoxyl-tetrazolium method), capillary density was assessed as the ratio of capillaries to muscle fibers (4 fields, 200× magnitude).
To assess the effect of LL-37/hCAP-18 on both angiogenesis and the induction of collateral circulation under pathological conditions, we applied the substance in a rabbit hind limb model. In this model angiogenesis and collateral vessel growth (arteriogenesis) are induced by excision of the femoral artery. Seven days after surgical excision of the femoral artery, baseline measurements were performed and LL-37/hCAP-18 or buffer as control were injected into the ischemic hindlimb.

Setting [4] is: serum free medium, cell count after 72 h.

“Also recorded” adds a separate entry of the source. Where no end group is shown, it is not given here. [ ]: non-standard residue; d: D form.

For pertussis toxin, in the assay on HUVECs [1], the “effect of the inhibitor on LL-37/hCAP-18-induced endothelial proliferation” value is listed as “inhibition of the proliferative response; also recorded: inhibited activities of LL-37/hCAP-18 on endothelial proliferation” and the “effect of the inhibitor on baseline cell proliferation” value is “no effect on the baseline measurements”.

On to “LLGDFFRKSKEKIGKEFKRIVQRIKDFLRNLVPRTES [LL-37/hCAP-18, human cathelicidin antimicrobial peptide, the 37 C-terminal amino acid residues; synthetic peptide used in the tests]”, for which the “proliferative activity in the presence of human serum” value with HUVECs [2] (10% human serum, 72 h) is listed as “not inhibited; also recorded: not blocked”. In the assay on HUVECs [2] (setting [4]), the endothelial proliferation entry is given as “dose-dependent increase of endothelial proliferation” and the “minimal concentration necessary to induce significant increase of proliferation” value was 50 ng/mL. In addition, the “formation of rings and cords of cells” value in the assay with HUVECs [3] was “significantly induces the formation of visible rings and cords of cells”. For the same molecule, in the assay on ischemic hindlimb, the “blood flow (cine-frame-count of contrast agent passage time)” value was “significantly increased; also recorded: significantly augmented”; the “capillary density (capillaries to muscle fibers, calf muscles)” value is recorded as “higher capillary density”; the “collateral growth (increase in angiographic collateral score, medial thigh)” value was “significantly increased collateral growth; also recorded: significant increase”.

Turning to “WKYMVm (WKYMV[dM]) [synthetic hexapeptide, "m" denotes the D-form of methionine; specific agonist for FPRL1, reference compound]”, the endothelial proliferation entry in the assay with HUVECs [2] (setting [4]) was “stimulated proliferation of endothelial cells”.

Take `CN(C)CCCn1cc(C2=C(c3c[nH]c4ccccc34)C(=O)NC2=O)c2ccccc21` [GF 109203X]: in the assay with HUVECs [1], the “effect of the inhibitor on LL-37/hCAP-18-induced endothelial proliferation” value is given as “inhibition of the proliferative response; also recorded: inhibited activities of LL-37/hCAP-18 on endothelial proliferation” and the “effect of the inhibitor on baseline cell proliferation” value is recorded as “no effect on the baseline measurements”.
